Reference: PMC10945501, “Development and In Vivo Evaluation of Small-Molecule Ligands for Positron Emission Tomography of Immune Checkpoint Modulation Targeting Programmed Cell Death 1 Ligand 1” (Journal of Medicinal Chemistry, 2024)
Blank lines part the entries; values can stand above or below the compound they belong to.

What was measured:
[1] = system: PD-L1^+ / PD-L1^– H358 tumors (lung adenocarcinoma); set-up: method as in PMID 37450644; settings: ex vivo autoradiography; cited from earlier work
[2] = system: PD-L1^± ES2 tumors (ovarian carcinoma); set-up: method as in PMID 37450644; settings: ex vivo autoradiography; cited from earlier work
[3] = Plasma stability, mouse plasma; format: in vitro ADME; settings: 60 min, 37 °C
Protocol: (§1) Plasma stability was tested against pooled mouse plasma (Merck KGaA, Darmstadt, Germany) and pooled human plasma (Merck KGaA, Darmstadt, Germany). 25 μL of formulated radiotracer were incubated with 1250 μL of plasma at 37 °C. The amount of intact tracer (%) was determined after 0, 15, 30, and 60 min. 100 μL aliquots were quenched with the same amount of MeCN, centrifuged for 4 min at 4 °C with 21,380g, and analyzed by HPLC setup 1.

[4] = Plasma stability, human plasma; format: in vitro ADME; settings: 60 min, 37 °C
Protocol: as §1

[5] = Plasma protein binding (centrifugal filters); format: in vitro ADME; settings: 10 kDa centrifugal filters
Protocol: Plasma protein binding was assessed using 10 kDa centrifugal filters (Merck KGaA, Darmstadt, Germany). After centrifugation for 30 min at 21,380g, filtrates, and filters were measured separately in a γ counter. In addition, water was used instead of plasma to assess the nonspecific binding to filters.

[6] = Metabolic stability in human liver microsomes; format: in vitro ADME; settings: 60 min, 37 °C
Protocol: Metabolic stability was tested using pooled, mixed gender, 20 donor human liver microsomes (HLM) (Corning, Corning, USA, Cat. #452161) according to the supplied protocol. In short, 15 μL of HLM (20 mg/mL), 15 μL of nicotinamide adenine dinucleotide phosphate (NADPH) regenerating system solution A (Corning, Corning, USA), 3 μL of solution B (Corning, Corning, USA), and 257 μL of a 1:10 dilution of 10× phosphate-buffered saline (PBS) concentrate (MORPHISTO, Offenbach am Main, Germany) were preincubated at 37 °C for 10 min.
Aliquots were drawn 0, 15, 30, and 60 min after the addition of 5 μL radiotracer, subsequently quenched with the same amount of MeCN, centrifuged for 4 min at 21,380g, and analyzed by HPLC setup 1 for the amount of intact tracer (%).

[7] = system: CHO and CHO-hPD-L1 xenografts; experiment: In vivo dynamic μPET/CT imaging; settings: NSG mice, i.v.
Protocol: Body weight and tumor development were monitored every second day by caliper measurement. […] The animals were subjected to μPET imaging, when tumors reached a volume of at least 200 mm^3. […] There were no losses. […] The mice were placed in the μPET/CT scanner (Inveon, Siemens Medical Solution, Knoxville, USA), covering the total body, and dynamic imaging was performed for up to 60 min to follow tracer distribution. Images were recorded with frames of 4 × 2 […], and 1 × 500 s. During the whole imaging procedure, vital parameters (respiration, body temperature) were continuously monitored using a dedicated monitoring unit (bioVet; m2m imaging, Cleveland, USA) to ensure the depth of anesthesia and well-being of the animals. […] Volumes of interest (VOIs) were created semiautomatically based on fused μPET and μCT images using PMOD software (Version 3.807; Bruker, Mannheim, Germany). The tracer uptake in the VOIs is normalized to injected dose and volume and expressed as percentage injected dose per cubic centimeter (% ID/cc).

[8] = system: CHO and CHO-hPD-L1 xenografts; experiment: Ex vivo biodistribution; format: in vivo, NSG mice
Protocol: Ex vivo biodistribution was assessed 30, 40, and 70 min after tracer application in NSG mice. Radioactivity was determined using a Wizard[2] γ counter. Samples were measured for 30 s, CPM-corrected for background counts, and half-life corrected to time of tracer injection. Organs were wet-weighted, and the percentage of injected dose per gram of organ was calculated (% ID/g).

[9] = system: PD-L1; set-up: method as in PMID 37409670; settings: B16–F10, no control xenograft; cited from earlier work

Structure (SMILES): N#Cc1c(-c2ccc([18F])cc2)csc1OCc1ccc(CN)cc1 [2-((4-(aminomethyl)benzyl)oxy)-4-(4-[^18F]fluorophenyl)thiophene-3-carbonitrile]
fold higher uptake in PD-L1^+ compared to PD-L1^– tumors [1]: 1.4 fold | difference in uptake PD-L1^+ vs PD-L1^– tumors [2]: not observed

intact tracer in mouse plasma [3]: over 99% | intact tracer in human plasma [4]: over 99% | fraction unbound [5]: 0.011 | intact tracer after human liver microsomes [6]: 49.3% | uptake in CHO and CHO-hPD-L1 xenografts (μPET) ([7]; dynamic scan up to 60 min): < 1.2 % ID/cc | ex vivo uptake marked in Figure 9B ([8]; NSG mice, 30, 40 or 70 min p.i.): < 1.5 % ID/g
Structure (SMILES): Cc1c(COc2cc(OCc3ccnc(C#N)c3)c(CN([11CH3])CCO)cc2Cl)cccc1-c1ccc2c(c1)OCCO2 [[^11C]5c]
organ uptake (μPET) [7]: high uptake in the liver, intestine, gallbladder, and kidneys | organ uptake (ex vivo biodistribution) ([8]; NSG mice): substantial uptake in the liver, lung, and kidneys

Structure (SMILES): Cc1c(COc2cc(OCc3cccc(OS(=O)(=O)[18F])c3)c(CNC(CO)(CO)CO)cc2Cl)cccc1-c1ccc2c(c1)OCCO2 [[^18F]LGSu-1]
PD-L1^+ tumor uptake [9]: 3.3 % ID/mL
